Where a SMILES comes first, the peptide text is derived from it. Bridges are numbered along the chain shown (N, C = ends). [ ]: non-standard residue; d: D form. ξ: configuration not given here. ξpGlu = O=C1CCC(C(=O)O)N1
Tests used:
[1] = Thermal stability in Tris-acetate-EDTA buffer of pH 8.3 at 100 degC measured upto 12 hrs by reverse-phase HPLC analysis; format: physicochemical; details: pH 8.3, 12 h
[2] = Toxicity in human RBC assessed as hemolytic activity at 50 uM measured after 1 hr by spectrophotometric analysis; format: cell-based, Erythrocyte; details: for Activity: erythrocyte, 1 h, 50 µM
[3] = Toxicity in Thamnaconus modestus RBC assessed as hemolytic activity at 0.08 to 50 uM measured after 1 hr by spectrophotometric analysis; format: cell-based; details: erythrocyte
[4] = system: RAW264.7; test: Cytotoxicity against mouse RAW264.7 cells assessed as cell viability at 10 or 40 ug/ml measured after 24 hrs by WST assay; format: cell-based; details: raw264.7, 24 h
[5] = system: RAW264.7; test: Toxicity in mouse RAW264.7 cells assessed as in induction of Nitric oxide production at 10 or 40 ug/ml measured after 24 hrs by Griess reaction method; format: cell-based; details: raw264.7, 24 h
[6] = system: Plasma; test: Metabolic stability in human plasma at 37 degC measured upto 12 hrs by reverse-phase HPLC analysis; format: ADME, cell-free
[7] = Thermal stability of the compound in phosphate buffer of pH 7.4 at 50 ug at 100 degC assessed as conformation changes by measuring changes in short wavelength region (195 nanometer) by CD analysis; format: physicochemical
[8] = Thermal stability of the compound in phosphate buffer of pH 7.4 at 50 ug at 25 degC by CD analysis; format: physicochemical
[9] = Cytotoxicity against rat Ac2F cells at 30 uM; format: cell-based
[10] = Chemical stability assessed as trypsin (unknown origin)-mediated degradation in simulated human intestinal fluid at 37 degC measured up to 12 hrs by reverse-phase HPLC analysis; format: ADME, physicochemical; details: simulated gi fluid
[11] = Chemical stability assessed as chymotrypsin (unknown origin)-mediated degradation in simulated human intestinal fluid at 37 degC measured up to 12 hrs by reverse-phase HPLC analysis; format: ADME, physicochemical; details: simulated gi fluid
[12] = Chemical stability assessed as pepsin (unknown origin)-mediated degradation in simulated human intestinal fluid at 37 degC measured up to 12 hrs by reverse-phase HPLC analysis; format: ADME, physicochemical; details: simulated gi fluid
[13] = Chemical stability assessed as elastase (unknown origin)-mediated degradation in simulated human intestinal fluid at 37 degC measured up to 12 hrs by reverse-phase HPLC analysis; format: ADME, physicochemical; details: simulated gi fluid
[14] = system: Mus musculus; test: Toxicity in mouse assessed as aggressiveness at 40 mg/kg, ip after 12 hrs; format: organism-based; details: in vivo
[15] = system: Mus musculus; test: Toxicity in mouse assessed as stiff tail at 40 mg/kg, ip after 12 hrs; format: organism-based; details: in vivo
[16] = system: Mus musculus; test: Toxicity in mouse assessed as paralysis at 40 mg/kg, ip after 12 hrs; format: organism-based; details: in vivo
[17] = system: Mus musculus; test: Toxicity in mouse assessed as convulusion at 40 mg/kg, ip after 12 hrs; format: organism-based; details: in vivo
[18] = system: Mus musculus; test: Toxicity in mouse assessed as mortality at 40 mg/kg, ip after 7 days; format: organism-based; details: in vivo, 168 h
[19] = system: Mus musculus; test: Toxicity in mouse assessed as appearance changes at 40 mg/kg, ip after 7 days; format: organism-based; details: in vivo, 168 h
[20] = system: Mus musculus; test: Toxicity in mouse assessed as behavior changes at 40 mg/kg, ip after 7 days; format: organism-based; details: in vivo, 168 h

SMILES | Stability [1] | Activity [2] | Activity [3] | Activity [4] | Activity [5] | other results
CC[C@H](C)[C@H](NC(=O)[C@@H](NC(=O)[C@H](Cc1ccc(O)cc1)NC(=O)[C@@H]1CSSC[C@@H]2NC(=O)[C@@H]3CCCN3C(=O)[C@H](CC(N)=O)NC(=O)[C@H](Cc3ccccc3)NC(=O)[C@H](CCC(=O)O)NC(=O)[C@H](C(C)C)NC(=O)[C@H](CC(=O)O)NC(=O)[C@@H]3CSSC[C@H](NC(=O)[C@H]([C@H](C)O)NC(=O)[C@H](CC(C)C)NC(=O)[C@@H]4CCCN4C(=O)[C@@H]4CCCN4C(=O)[C@H](CSSC[C@H](N)C(=O)N4CCC[C@H]4C(=O)NCC(=O)N[C@@H](CCC(=O)O)C(=O)NCC(=O)N[C@@H](CCC(=O)O)C(=O)N[C@@H](CCC(N)=O)C(=O)N3)NC2=O)C(=O)N[C@@H]([C@@H](C)CC)C(=O)N2CCC[C@H]2C(=O)NCC(=O)N[C@@H](CC(=O)O)C(=O)N2CCC[C@H]2C(=O)N[C@@H](Cc2ccc(O)cc2)C(=O)NCC(=O)N[C@@H]([C@@H](C)CC)C(=O)N1)[C@@H](C)CC)C(=O)O | Stable | Non-toxic | Non-toxic | Non-toxic | Non-toxic | –
CC(C)C[C@@H]1NC(=O)CNC(=O)[C@H](CC(N)=O)NC(=O)[C@H](CCCNC(=N)N)NC(=O)[C@H]([C@@H](C)O)NC(=O)[C@@H]2CSSC[C@@H]3NC(=O)[C@H]([C@@H](C)O)NC(=O)CNC(=O)CNC(=O)[C@H](C(C)C)NC(=O)[C@@H]4CSSC[C@H](NC(=O)[C@H]([C@@H](C)O)NC(=O)[C@H](CSSC[C@H](NC(=O)[C@H](C(C)C)NC(=O)[C@@H]5CCCN5C1=O)C(=O)NCC(=O)N[C@@H](CCC(=O)O)C(=O)N[C@@H]([C@@H](C)O)C(=O)N4)NC(=O)CNC(=O)[C@@H]1CCCN1C(=O)[C@H]([C@@H](C)O)NC(=O)[C@H](CC(N)=O)NC3=O)C(=O)N[C@@H](CO)C(=O)N[C@@H](Cc1c[nH]c3ccccc13)C(=O)N1CCC[C@H]1C(=O)N[C@@H](C(C)C)C(=O)N2 | Stable | – | – | – | – | hemolysis at 1 h, 50 µM ([2]; red blood cells, read-out: Activity): 74%
CC[C@H](C)[C@H](NC(=O)[C@@H](NC(=O)[C@H](Cc1ccc(O)cc1)NC(=O)[C@@H]1CSSC[C@@H]2NC(=O)[C@@H]3CCCN3C(=O)[C@H](CC(N)=O)NC(=O)[C@H](Cc3ccccc3)NC(=O)[C@H](CCC(=O)O)NC(=O)[C@H](C(C)C)NC(=O)[C@H](CC(=O)O)NC(=O)[C@@H]3CSSC[C@H](NC(=O)[C@H]([C@@H](C)O)NC(=O)[C@H](CC(C)C)NC(=O)[C@@H]4CCCN4C(=O)[C@@H]4CCCN4C(=O)[C@H](CSSC[C@H](N)C(=O)N4CCC[C@H]4C(=O)NCC(=O)N[C@@H](CCC(=O)O)C(=O)NCC(=O)N[C@@H](CCC(=O)O)C(=O)N[C@@H](CCC(=O)O)C(=O)N3)NC2=O)C(=O)N[C@@H]([C@@H](C)CC)C(=O)N2CCC[C@H]2C(=O)NCC(=O)N[C@@H](CC(=O)O)C(=O)N2CCC[C@H]2C(=O)N[C@@H](Cc2ccc(O)cc2)C(=O)NCC(=O)N[C@@H]([C@@H](C)CC)C(=O)N1)[C@@H](C)CC)C(=O)O (H-CPGEGEECDVEFNPCCPPLTCIPGDPYGICYII-OH; disulfide 1-16, 8-21, 15-30) | Stable | Non-toxic | Non-toxic | Non-toxic | Non-toxic | Stability [6]: Stable; Stability [7]: Unstable; Stability [8]: Stable; Activity [9]: Non-toxic; Stability [10]: Stable; Stability [11]: Stable; Stability [12]: Stable; Stability [13]: Stable
CC[C@H](C)[C@@H]1NC(=O)[C@@H]2CSSC[C@@H]3NC(=O)[C@H](CO)NC(=O)[C@H](CCC(=O)O)NC(=O)CNC(=O)[C@H](CCC(=O)O)NC(=O)[C@H](Cc4ccccc4)NC(=O)[C@H](C)NC(=O)[C@@H](NC(=O)CNC(=O)C4CCC(=O)N4)CSSC[C@H](NC(=O)[C@H](CSSC[C@@H](C(=O)N[C@@H](Cc4ccc(O)cc4)C(=O)N[C@@H](Cc4ccc(O)cc4)C(=O)N[C@@H](CC(C)C)C(=O)O)NC(=O)[C@H]([C@@H](C)O)NC(=O)CNC(=O)[C@H](CC(=O)O)NC(=O)[C@@H]4CCCN4C(=O)[C@H](CC(N)=O)NC(=O)CNC(=O)[C@@H]4CCCN4C1=O)NC(=O)[C@@H]1CCCN1C(=O)[C@H](Cc1ccc(O)cc1)NC(=O)[C@H](Cc1ccccc1)NC(=O)[C@H](CCC(=O)O)NC(=O)[C@H](C(C)C)NC(=O)[C@H](CC(N)=O)NC3=O)C(=O)N1CCC[C@H]1C(=O)NCC(=O)N[C@@H](CC(C)C)C(=O)NCC(=O)N[C@@H](CC(C)C)C(=O)N[C@@H]([C@@H](C)O)C(=O)N2 (some centres not stated) ([ξpGlu]GCAFEGESCNVEFYPCCPGLGLTCIPGNPDGTCYYL-OH; disulfide 3-18, 10-25, 17-34) | – | Non-toxic | Non-toxic | – | – | –
CC[C@H](C)[C@@H]1NC(=O)[C@@H]2CSSC[C@@H]3NC(=O)[C@H](CO)NC(=O)[C@H](CCC(=O)O)NC(=O)CNC(=O)[C@H](CCC(=O)O)NC(=O)[C@H](Cc4ccccc4)NC(=O)[C@H](C)NC(=O)[C@@H](NC(=O)CNC(=O)C4CCC(=O)N4)CSSC[C@H](NC(=O)[C@H](CSSC[C@@H](C(=O)N[C@@H](Cc4ccc(O)cc4)C(=O)N[C@@H](Cc4ccc(O)cc4)C(=O)N[C@@H](CC(C)C)C(=O)O)NC(=O)[C@H]([C@@H](C)O)NC(=O)CNC(=O)[C@H](CC(=O)O)NC(=O)[C@@H]4CCCN4C(=O)[C@H](CC(N)=O)NC(=O)CNC(=O)[C@@H]4CCCN4C1=O)NC(=O)[C@@H]1CCCN1C(=O)[C@H](Cc1ccc(O)cc1)NC(=O)[C@H](Cc1ccccc1)NC(=O)[C@H](CCC(N)=O)NC(=O)[C@H](C(C)C)NC(=O)[C@H](CC(N)=O)NC3=O)C(=O)N1CCC[C@H]1C(=O)NCC(=O)N[C@@H](CC(C)C)C(=O)NCC(=O)N[C@@H](CC(C)C)C(=O)N[C@@H]([C@@H](C)O)C(=O)N2 (some centres not stated) ([ξpGlu]GCAFEGESCNVQFYPCCPGLGLTCIPGNPDGTCYYL-OH; disulfide 3-18, 10-25, 17-34) | Stable | Non-toxic | Non-toxic | Non-toxic | Non-toxic | Activity [14]: Non-toxic; Activity [15]: Non-toxic; Activity [16]: Non-toxic; Activity [17]: Non-toxic; Activity [18]: Non-toxic; Activity [19]: Non-toxic; Activity [20]: Non-toxic
CC[C@H](C)[C@@H]1NC(=O)CNC(=O)CNC(=O)[C@@H]2CCCN2C(=O)[C@H](CC(=O)O)NC(=O)CNC(=O)[C@@H]2CCCN2C(=O)[C@H](Cc2ccc(O)cc2)NC(=O)[C@@H]2CSSC[C@@H]3NC(=O)[C@H](CCC(=O)O)NC(=O)[C@H](CCC(=O)O)NC(=O)CNC(=O)[C@@H]4CCCN4C(=O)CNC(=O)[C@H](C)NC(=O)[C@@H](NC(=O)CNC(=O)C4CCC(=O)N4)CSSC[C@H](NC(=O)[C@H](CSSC[C@@H](C(=O)N[C@@H](Cc4ccc(O)cc4)C(=O)O)NC1=O)NC(=O)[C@H](CC(=O)O)NC(=O)[C@H](Cc1ccc(O)cc1)NC(=O)[C@H](Cc1ccccc1)NC(=O)CNC(=O)[C@H](C(C)C)NC(=O)[C@H]([C@@H](C)CC)NC3=O)C(=O)N1CCC[C@H]1C(=O)NCC(=O)N[C@@H](Cc1ccc(O)cc1)C(=O)N[C@@H](CCCNC(=N)N)C(=O)N2 (some centres not stated) ([ξpGlu]GCAGPGEECIVGFYDCCPGYRCYPGDPGGICY-OH; disulfide 3-18, 10-23, 17-32) | – | Non-toxic | Non-toxic | Non-toxic | Non-toxic | –
CC[C@H](C)[C@@H]1NC(=O)[C@H](CC(C)C)NC(=O)CNC(=O)[C@H](CC(=O)O)NC(=O)[C@@H]2CSSC[C@H](NC(=O)[C@H](Cc3c[nH]c4ccccc34)NC(=O)C3CCC(=O)N3)C(=O)N[C@@H](C)C(=O)N[C@@H](CCC(=O)O)C(=O)N[C@@H](CCC(=O)O)C(=O)NCC(=O)N[C@@H](CCC(=O)O)C(=O)N[C@@H](CO)C(=O)N[C@H]3CSSC[C@H](NC1=O)C(=O)N[C@@H](Cc1ccc(O)cc1)C(=O)N1CCC[C@H]1C(=O)N[C@@H]([C@@H](C)O)C(=O)N[C@@H](Cc1ccccc1)C(=O)N1CCC[C@H]1C(=O)N[C@@H](CCC(=O)O)C(=O)N1CCC[C@H]1C(=O)N[C@@H]([C@@H](C)CC)C(=O)N[C@H](C(=O)NCC(=O)N[C@H](C(=O)O)C(C)C)CSSC[C@H](NC(=O)[C@@H]1CCCN1C(=O)[C@H](Cc1ccc(O)cc1)NC(=O)[C@H](C(C)C)NC(=O)[C@H](CCC(=O)O)NC3=O)C(=O)N2 (some centres not stated) ([ξpGlu]WCAEEGESCEVYPCCDGLICYPTFPEPICGV-OH; disulfide 3-16, 10-21, 15-30) | – | Non-toxic | Non-toxic | – | – | Stability [6]: Stable; Stability [7]: Unstable; Stability [8]: Stable; Stability [10]: Stable; Stability [11]: Stable; Stability [12]: Stable; Stability [13]: Stable

From ChEMBL document CHEMBL3808389, “Stable and biocompatible cystine knot peptides from the marine sponge Asteropus sp” (Bioorg Med Chem, 2016)
